# Laboratory results published in patent EP4772649A1, “SCREENING METHOD FOR ODOR-SUPPRESSING MATERIAL” (Takasago International Corporation, priority 2023, dated 2025).
# Entries after “also recorded” stand apart in the source; their conditions may differ.
# Legend:
# OR2M3 = settings: Patent Literature 2; cited from earlier work
# [1] = tested on: olfactory receptor OR2AG2; assay: Antagonist screening: suppression of OR2AG2 response by luciferase reporter gene assay (Normalized Response); type: cell-based, human
# Description: The human olfactory receptor OR2AG2 gene expression vector was cloned, and HEK293T cells expressing the olfactory receptor OR2AG2 gene were used to perform an antagonist screening in which the effect of test substances on suppressing OR2AG2 response is measured by a luciferase reporter gene assay. In the luciferase reporter gene assay, each of approximately 500 test substances was individually mixed with each "dust odor" compound sample, and the Fold Increase value obtained in each test with the test substance mixed was calculated as the Normalized Response, assuming that the Fold Increase value obtained in the test without mixing any test substance was 1. The concentrations of the "dust odor" compounds used as samples were set as follows: a) 3-ethyl-2-pentylpyridine, 300 µM; b) 2-methoxy-3-isopropylpyrazine, 500 µM; c) 2-isobutyl-3-methoxypyrazine, 500 µM; and d) 2-sec-butyl-3-methoxypyrazine, 500 µM. […] As examples of antagonists thereby identified for each of the "dust odor" compounds a) to d), a) 2,4-decadienal, b) trans-2-nonenal, c) 2,4-undecadienal, and d) 2,4-decadienal were measured for their concentration-dependent effects in suppressing OR2AG2 response to each sample substance using a luciferase reporter gene assay. The concentrations of the samples were set as follows: a) 3-ethyl-2-pentylpyridine, 300 µM; b) 2-methoxy-3-isopropylpyrazine, 500 µM; c) 2-isobutyl-3-methoxypyrazine, 500 µM; and d) 2-sec-butyl-3-methoxypyrazine, 500 µM. The concentrations of the antagonists for each sample were set at 0 µM, 10 µM, 30 µM, 100 µM, and 300 µM.
# As in (2-3) of Example 2, HEK293T cells expressing the olfactory receptor OR2AG2 gene were used to determine the effect of test substances in suppressing OR2AG2 response to an odor solution sample with unknown components containing "dust odor" by antagonist screening using a luciferase reporter gene assay. […] As an example of antagonist, the effect of trans-2-nonenal in suppressing OR2AG2 response to the "dust odor" solution with unknown components was measured by a luciferase reporter gene assay. The final concentration of the sample was 0.1 mass%, and the concentrations of trans-2-nonenal relative to the sample were 0 µM, 1 µM, 2 µM, and 4 µM.
# [2] = tested on: olfactory receptor OR2AG2; assay: Luciferase reporter gene assay of olfactory receptor response (Fold Increase) in HEK293T cells expressing OR2AG2; type: cell-based, human; settings: for OR2AG2 response (Fold Increase value): screening of 1,367 odorant substances, 1 µM to 1 mM, Figure 2
# Description: 0.05 µg of the human olfactory receptor gene expression vector, 0.01 µg of RTP1S vector, 0.01 µg of the firefly luciferase vector pGL4.29 (Promega) containing a cAMP response element promoter, and 0.005 µg of the Renilla luciferase vector pGL4.74 (Promega) containing a thymidine kinase promoter were dissolved in 10 µL of Opti-MEM I (gibco) to prepare a gene solution (for one well). HEK293T cells were seeded at 100 µL per well in a 96-well plate (Biocoat, Corning) at a cell number that would reach confluence after 24 hours. The gene solution was added to each well using lipofection in accordance with the instructions for Lipofectamine 3000 to introduce the gene into the cells, which were then cultured at 37°C in a 5% carbon dioxide atmosphere for 24 hours.
# After removing the culture medium, 60 µL of an odorant compound sample prepared in CD293 medium (gibco) (supplemented with 20 µM L-glutamine), at the concentration required for measurement, was added to each well. After stimulation for 3 hours, luciferase activity was measured in accordance with the instructions for the Dual-Luciferase Reporter Assay System (Promega). The response intensity of the olfactory receptor was determined using, as an index, a Fold Increase value obtained by dividing the luciferase activity generated by stimulation with the odorant compound by the luciferase activity generated in a test system free of the odorant compound.
# For odorant substances whose response values in the luciferase reporter gene assay were equal to or greater than a predetermined threshold, the primary note from the odor-note information was extracted, and the proportion of each odor note was determined.
# To extract the "dust odor" generated when aspartame is combined with certain fruit flavors, as described in Patent Literature 1, which is well-known as a "dust odor" of unknown causative substance, aspartame, trans-2-hexenal, and hexanal were mixed at a 1:1:1 (mass ratio) and gently heated at 60°C for one week, after which the reaction product was extracted with hexane. The present extract was fractionated by medium-pressure HPLC with a silica gel column using hexane and ethyl acetate, then fractionated by medium-pressure HPLC with an ODS column using water and acetonitrile, and further fractionated by high-pressure HPLC with an ODS column using water and acetonitrile, to obtain an odor solution containing "dust odor." This "dust odor" solution with unknown components was added to HEK293T cells expressing the olfactory receptor OR2AG2 gene at final concentrations of 0.05 mass%, 0.1 mass%, and 0.2 mass%, and a luciferase reporter gene assay was performed.
# [3] = tested on: olfactory receptor OR2AG1; settings: Non Patent Literature 6; cited from earlier work
# OR11A1 = settings: Patent Literature 2; cited from earlier work
compound,measurement,setting,value
CC1(O)CC2CCC1(C)C2(C)C (stereo not drawn) [2-methylisoborneol],response of olfactory receptor OR2M3,OR2M3,specifically respond
"CCCCCCC=CC=CC=O [2,4-undecadienal]",Normalized Response,"[1]; against 2-isobutyl-3-methoxypyrazine 500 µM, test substance 1 µM to 1 mM",less than 1
COc1nccnc1C(C)C [2-methoxy-3-isopropylpyrazine],OR2AG2 response (Fold Increase value),[2],trigger OR2AG2 response
same,response of olfactory receptor OR2AG1,[3],responds
CCCCCC/C=C/C=O [trans-2-nonenal],Normalized Response,"[1]; against 0.1 mass% odor solution with unknown components containing ""dust odor""",below 1
same,Normalized Response,"[1]; against 2-methoxy-3-isopropylpyrazine 500 µM, test substance 1 µM to 1 mM",less than 1
CCC(C)c1nccnc1OC (stereo not drawn) [2-sec-butyl-3-methoxypyrazine],OR2AG2 response (Fold Increase value),[2],trigger OR2AG2 response
same,response of olfactory receptor OR2AG1,[3],responds
COc1nccnc1CC(C)C [2-isobutyl-3-methoxypyrazine],response of olfactory receptor OR2AG2 (Fold Increase value),"[2]; 1 mM odorant, screening of 396 human olfactory receptors, Figure 1",extremely strong response; also recorded: strong and specific response
same,OR2AG2 response (Fold Increase value),[2],trigger OR2AG2 response
same,response of olfactory receptor OR2AG1,[3],responds
CC1CCCC2(C)CCCCC12O (stereo not drawn) [geosmin],response of olfactory receptor OR11A1,OR11A1,specifically respond
CCCCCc1ncccc1CC [3-ethyl-2-pentylpyridine],OR2AG2 response (Fold Increase value),[2],trigger OR2AG2 response
"CCCCCC=CC=CC=O [2,4-decadienal]",Normalized Response,"[1]; against 2-sec-butyl-3-methoxypyrazine 500 µM, test substance 1 µM to 1 mM",less than 1
same,Normalized Response,"[1]; against 3-ethyl-2-pentylpyridine 300 µM, test substance 1 µM to 1 mM",less than 1
